{"source": "patent US6093720A", "about": "“Trans apovincaminic acid ester derivatives” (Richter Gedeon Vegyeszeti GmbH, priority 1995, dated 2000)", "key": {"[1]": {"experiment": "Antiamnesic activity in rats", "type": "in vivo"}, "[2]": {"system": "Fe^2+ -Induced Lipid Peroxidation in Brain Homogenate", "experiment": "Fe^2+-induced (non-enzymatic) lipid peroxidation in brain homogenate (ANI)", "type": "biochemical, rat (Hannover-Wistar)", "conditions": "for antioxidant activity in Fe^2+-induced lipid peroxidation, in words: comparison with idebenone, DL-α-tocopherol or silymarin; for IC50: Fe^2+-induced lipid peroxidation, rat brain homogenate, 37° C., 20 minutes, pH 7.4", "experimental": "Effect on the Fe^2+ -Induced Lipid Peroxidation in Brain Homogenate\nAfter decapitating Hannover-Wistar rats weighing 150-220 g each, the whole brain was homogenized in 9 volumes of ice-cold Krebs-Ringer's buffer containing 15 mM HEPES, (4-(2-hydroxyethyl)-1-piperazinylethanesulfonic acid) (pH 7.4), 140 mM NaCl7 3.6 mM KCl, 1.5 mM CaCl2, 0.7 mM MgCl2, 1.4 mM KH2 PO4 and 10 glucose. Then the protein content of the solution was determined and adjusted to 10 mg/ml concentration.\nAfter adding the inhibitory agent to be tested in a volume of 5 μl to 200 μl of the homogenate, the incubation mixture was incubated at 37° C. for 20 minutes. The Fe^2+ -induced lipid peroxidation was accomplished by adding 5 μl of 8 mM Fe2 (NH4)2 (SO4)2 solution. After passing of the incubation time, the reaction was stopped by adding 1 ml of a stopping solution containing 0.8 M HCl and 12.5% trichloroacetic acid, then the samples were centrifuged at 2000 g in a Janetzki K70 apparatus at 4° C. for 10 minutes.\nTo a 0.5 ml portion of the supernatant, 1 ml of 1% thiobarbituric acid solution was added, then the samples were placed in a water bath of 100° C. for 20 minutes. The color intensity developed was determined at 535 nm with a Hitachi 150-20 spectrophotometer by using malondialdehyde bis(diethylacetal) as reference compound.\nANI: non-enzymatically (Fe^2+) induced lipid peroxidation test"}, "[3]": {"experiment": "Protection against ischemia-induced injury of memory", "type": "in vivo", "conditions": "oral dose range between 1 and 10 mg/kg"}, "[4]": {"experiment": "Diazepam-induced anterograde amnesia (passive avoidance)", "type": "in vivo, NMRI mice", "conditions": "for Inhibition of the diazepam-induced amnesia %: 1 hour before learning, diazepam 3 mg/kg i.p.; for antiamnesic activity, in words: diazepam-induced anterograde amnesia, 0.1 and 10 mg/kg p.o.", "excerpt": "2. Diazepam-Induced Anterograde Amnesia C. L. Broekkamp et al.: The comparative effects of benzodiazepines, progabide and PK 9084 on acquisition of passive avoidance in mice [Psychopharmacology (Berlin) 83, 122-125 (1984)]. The memory test was accomplished on NMRI mice weighing 25 to 28 g each by using the passive avoidance, a method based on the genetically determined nyctophilic behavior of rodents. During the learning period, the pre-selected animals (mice entering the dark space from the illuminated space within 30 seconds) were placed in an illuminated space. After entering the dark space, the animal received an electric shock (1 mA for […]) onto its planta within 30 seconds, then the time until entry to the dark space (latency period) was registered. After 24 hours, the animals were placed again in the illuminated space and the time until crossing over to the dark space (retention time=T with a time limit of 300 seconds) was measured. For inducing an anterograde amnesia, the animals were treated intraperitoneally with 3 mg/kg of diazepam 30 minutes before learning. The compounds were administered orally in 0.1 or 10 mg/kg doses, respectively 1 hour before learning. [formula]"}, "[5]": {"experiment": "Antiischemic effect on bilateral (carotid) artery ligation model, mortality", "type": "in vivo, mice", "conditions": "for mortality at 2 mg/kg: 24 h, 30 minutes before 5-minute bilateral carotid ligation, control mortality 70%", "method": "1. Antiischemic Effect (On Bilateral Artery Ligation Model)\nN. Himori et al.: Cerebral ischemia model with conscious mice involvement of NMDA receptor activation and derangement of learning and memory ability [J. Pharmacol. Meth. 23, 311-327 (1990)].\nCarotid arteries of mice (weighing 30 to 32 g each) were exposed bilaterally under anaesthesia by 450 mg/kg of intraperitoneal (i.p.) chloral hydrate. The sympathetic and vagal nerves were separated and a loose ligation was bilaterally placed below the carotid arteries. Both ends of the ligation were led out on the back, behind the ears. Next day, in conscious state both ends of the ligation were pulled resulting in the stopping of blood supply through the carotid arteries. This was maintained for 5 minutes, then released to provide the reperfusion. The number of animals died during the 5-minute period and the following 24 hours were registered. The calculation of significance was performed by the chi^2 test. The pre-treatment with the compound was carried out intraperitoneally (i.p.) 30 minutes before the ligation.\nThe transient dramatic decrease in the cerebral blood supply, then the starting of reperfusion after stopping the ligation leads to the formation of extremely toxic oxygen free radicals (superoxide radical, hydrogen peroxide). […] [ED50 is the dose (as mg/kg) diminishing the mortality by 50% in comparison to the untreated is control group]."}, "[6]": {"experiment": "Electroshock-induced retrograde amnesia model", "type": "in vivo", "conditions": "oral dose range between 0.1 and 10 mg/kg"}, "[7]": {"experiment": "Antiischemic effect after oral administration", "type": "in vivo"}, "[8]": {"experiment": "\"Focal\" ischemia models elicited in one well-determined area of the brain", "type": "in vivo"}, "[9]": {"system": "NADPH-Induced Lipid Peroxidation in Brain Microsomes", "experiment": "NADPH-induced (enzymatic) lipid peroxidation in brain microsomes (AEI)", "type": "biochemical, rat (male Hannover-Wistar)", "conditions": "for IC50: NADPH-induced lipid peroxidation, rat brain microsomes, 37° C., 20 minutes, pH 6.8; for inhibition of NADPH-induced lipid peroxidation relative to silymarin (times as strongly): compared with silymarin", "experimental": "Effect on the NADPH-Induced Lipid Peroxidation in Brain Microsomes\nMale Hannover-Wistar rats with a body weight of 150-250 g were used for the preparation of microsomes. After decapitation, the whole brain was removed and homogenized in a 10-fold volume of ice-cold 0.25 M saccharose solution. The homogenate was centrifuged in a Hitachi CR 26H equipment at 15000 g at 4° C. for 10 minutes, then the supernatant was collected and centrifuged in a Hitachi SCP 85H apparatus at 78000 g at 4° C. for 60 minutes. After suspending the precipitate in 0.15 M KCl solution, the protein content of the obtained solution was determined and then adjusted to 10 mg/ml concentration. The microsome thus obtained was frozen in a dry ice-acetone mixture and stored at -70° C. until use. The components of the incubation mixture were: 50 mM TRIS-HCl (pH 6.8), 0.2 mM FeCl3, 1 mM KH2 PO4, 0.5 mM ADP, 0.2 mg of microsomes as well as the compound to be tested. The incubation was carried out with a final volume of 1 ml and with an incubation time of 20 minutes at a temperature of 37° C. The lipid peroxidation was induced by adding 0.4 mM NADPH.\nThe formation of malondialdehyde was determined by using thiobarbituric acid. After stopping the reaction, 1 ml of 1% thiobarbituric acid solution each was weighed to the samples, which were then placed in a water bath of about 100° C. for 10 minutes. Subsequently, the samples were centrifuged at 2000 g in a Janetzki K70 apparatus at 4° C. for 10 minutes. The absorbance values of the colored supernatant were measured at 535 nm in a Hitachi 150-20 spectrophotometer. Malondialdehyde bis(diethylacetal) was used as reference compound."}}, "note": "“And” between values parts separate entries of the source, which are not always exact repeats. Identical values can stand only once. “Also recorded” adds a separate entry of the source. Counter-ions that a name gives are not always drawn."}
{"smiles": "CC[C@@]12C=C(C(=O)OCCOC(C)=O)n3c4c(c5ccccc53)CCN(CCC1)[C@@H]42", "note": "[Compound 2705279, (-)-trans apovincaminic acid 2-acetoxyethyl ester(3β,16α)monohydrochloride]", "values": [{"measurement": "antiamnesic activity, in words", "setting": "[1]", "result": "could well be measured in rats"}, {"measurement": "antioxidant activity in Fe^2+-induced lipid peroxidation, in words", "setting": "[2]", "result": "about twice as active as idebenone or DL-α-tocopherol"}, {"measurement": "protection against ischemia-induced injury of memory, in words", "setting": "[3]", "result": "protected against the ischemia-induced injury of memory"}, {"measurement": "Inhibition of the diazepam-induced amnesia %", "setting": "[4]; 0.1 mg/kg p.o.", "result": 79, "unit": "%"}, {"measurement": "Inhibition of the diazepam-induced amnesia %", "setting": "[4]; 10.0 mg/kg p.o.", "result": 119, "unit": "%"}, {"measurement": "antiamnesic activity, in words", "setting": "[4]", "result": "particularly effective; also recorded: significant protective effect in both doses used and an activity by far exceeding that of vinpocetine; also recorded: most active in this field"}, {"measurement": "mortality at 2 mg/kg", "setting": "[5]; Mus musculus, ip, 2 mg/kg i.p.", "result": "10 to 30", "unit": "%"}, {"measurement": "ED50", "setting": "[5]; Mus musculus, ip, dose diminishing the mortality by 50% in comparison to the untreated control group", "result": 0.76, "unit": "mg/kg"}, {"measurement": "antiischemic activity, in words", "setting": "[5]; bilateral artery ligation, mice, 2 mg/kg i.p.", "result": "most active"}, {"measurement": "protective action, in words", "setting": "[6]", "result": "dose-dependent protective action"}, {"measurement": "antiischemic effect, in words", "setting": "[7]", "result": "can be measured after oral administration, too"}, {"measurement": "activity on focal ischemia models, in words", "setting": "[8]", "result": "active"}, {"measurement": "IC50", "setting": "[9]", "result": "6.3 µM and < 10 µM"}, {"measurement": "antioxidant effect in NADPH-induced lipid peroxidation, in words", "setting": "[9]; comparison with reference compounds", "result": "comparable to that of idebenone"}, {"measurement": "antioxidant activity compared with idebenone or vinpocetine, in words", "setting": "[9]; summary statement, in vitro and in vivo", "result": "surpasses both in vitro and in vivo that of idebenone or vinpocetine"}]}
{"smiles": "CC[C@@]12C=C(C(=O)OCCO)n3c4c(c5ccccc53)CCN(CCC1)[C@@H]42", "note": "[Compound 1010885, (-)-trans apovincaminic acid 2-hydroxyethyl ester(3β,16α)]", "values": [{"measurement": "IC50", "setting": "[2]", "result": 15.5, "unit": "µM"}, {"measurement": "antioxidant activity in Fe^2+-induced lipid peroxidation, in words", "setting": "[2]", "result": "more strongly than idebenone"}, {"measurement": "Inhibition of the diazepam-induced amnesia %", "setting": "[4]; 0.1 mg/kg p.o.", "result": 74, "unit": "%"}, {"measurement": "Inhibition of the diazepam-induced amnesia %", "setting": "[4]; 10.0 mg/kg p.o.", "result": 65, "unit": "%"}, {"measurement": "mortality at 2 mg/kg", "setting": "[5]; Mus musculus, ip, 2 mg/kg i.p.", "result": 60, "unit": "%"}, {"measurement": "IC50", "setting": "[9]", "result": 9.7, "unit": "µM"}, {"measurement": "inhibition of NADPH-induced lipid peroxidation relative to silymarin (times as strongly)", "setting": "[9]", "result": "about 20 times"}]}
{"smiles": "CCC(=O)OCCOC(=O)C1=C[C@@]2(CC)CCCN3CCc4c(n1c1ccccc41)[C@@H]32", "note": "[Compound 1011038, (+)-trans apovincaminic acid 2-(propionyloxy)ethyl ester(3α,16β)hydrochloride]", "values": [{"measurement": "IC50", "setting": "[2]", "result": "8.7 µM and < 10 µM"}, {"measurement": "antioxidant activity in Fe^2+-induced lipid peroxidation, in words", "setting": "[2]", "result": "about twice as active as idebenone or DL-α-tocopherol"}, {"measurement": "Inhibition of the diazepam-induced amnesia %", "setting": "[4]; 0.1 mg/kg p.o.", "result": 64, "unit": "%"}, {"measurement": "Inhibition of the diazepam-induced amnesia %", "setting": "[4]; 10.0 mg/kg p.o.", "result": 24, "unit": "%"}, {"measurement": "antiamnesic activity, in words", "setting": "[4]", "result": "particularly effective"}, {"measurement": "mortality at 2 mg/kg", "setting": "[5]; Mus musculus, ip, 2 mg/kg i.p.", "result": 60, "unit": "%"}, {"measurement": "IC50", "setting": "[9]", "result": "8.4 µM and < 10 µM"}, {"measurement": "inhibition of NADPH-induced lipid peroxidation relative to silymarin (times as strongly)", "setting": "[9]", "result": "about 20 times"}]}
